Assay results: patent publication US8071605B2, “Piperidine compounds for use in the treatment of bacterial infections” (AstraZeneca AB, priority 2008, dated 2011)

Molecular target: S. aureus GyrB ATPase (Staphylococcus aureus, UniProt P0A0K8)
Test: S. aureus GyrB ATPase inhibition (ammonium molybdate/malachite green phosphate detection)
Format: biochemical
Conditions: compound concentration of 1 μM (unless otherwise noted)
Description: E. coli GyrB ATPase Inhibition Activity: Compounds can be tested for inhibition of E. coli GyrB ATPase activity using an ammonium molybdate/malachite green-based phosphate detection assay (Lanzetta, P. A., L. J. Alvarez, P. S. Reinach, and O. A. Candia, 1979, 100: 95-97). Assays can be performed in multiwell plates in 30 μl reactions containing: 50 mM Hepes buffer pH 7.5, 75 mM ammonium acetate, 8.0 mM magnesium chloride, 0.5 mM ethylenediaminetetraacetic acid, 5% glycerol, 1 mM 1,4-Dithio-DL-threitol, 200 nM bovine serum albumin, 1.6 μg/ml sheared salmon sperm DNA, 400 pM E. coli GyrA, 400 pM E. coli GyrB, 250 μM ATP, and compound in dimethylsulfoxide. Reactions can be quenched with 30 μl of ammonium molybdate/malachite green detection reagent containing 1.2 mM malachite green hydrochloride, 8.5 mM ammonium molybdate tetrahydrate, and 1 M hydrochloric acid. Plates can be read in an absorbance plate reader at 650 nm and percent inhibition values are calculated using dimethylsulfoxide (2%)-containing reactions as 0% inhibition and EDTA-containing (2.4 μM) reactions as 100% inhibition controls. An IC50 measurement of compound potency for each compound can be determined from reactions performed in the presence of 10 different compound concentrations. E. coli Topoisomerase IV ATPase Inhibition Activity: Compounds can be tested for inhibition of E. coli topoisomerase IV ATPase activity as described above for E. coli GyrB except the 30 μl reactions contained the following: 20 mM TRIS buffer pH 8, 50 mM ammonium acetate, 8 mM magnesium chloride, 5% glycerol, 5 mM 1,4-Dithio-DL-threitol, 0.005% Brij-35, 5 μg/ml sheared salmon sperm DNA, 500 pM E. coli ParC, 500 pM E. coli ParE, 160 μM ATP, and compound in dimethylsulfoxide. An IC50 measurement of compound potency for each compound can be determined from reactions performed in the presence of 10 different compound concentrations. S. aureus GyrB ATPase Inhibition Activity: Compounds may be tested for inhibition of S. aureus GyrB ATPase activity using an ammonium molybdate/malachite green-based phosphate detection assay (Lanzetta, P. A., L. J. Alvarez, P. S. Reinach, and O. A. Candia, 1979, 100: 95-97). Assays can be performed in multiwell plates in 30 μl reactions containing: 50 mM Hepes buffer pH 7.5, 75 mM ammonium acetate, 8.0 mM magnesium chloride, 0.5 mM ethylenediaminetetraacetic acid, 5% glycerol, 1.0 mM 1,4-Dithio-DL-threitol, 200 nM bovine serum albumin, 1.0 μg/ml sheared salmon sperm DNA, 250 pM E. coli GyrA, 250 pM S. aureus GyrB, 250 μM ATP, and compound in dimethylsulfoxide. Reactions can be quenched with 30 μl of ammonium molybdate/malachite green detection reagent containing 1.2 mM malachite green hydrochloride, 8.5 mM ammonium molybdate tetrahydrate, and 1 M hydrochloric acid. Plates can be read in an absorbance plate reader at 650 nm and percent inhibition values can be calculated using dimethylsulfoxide (2%)-containing reactions as 0% inhibition and EDTA-containing (2.4 μM) reactions as 100% inhibition controls. An IC50 measurement of compound potency for each compound can be determined from reactions performed in the presence of 10 different compound concentrations.
Compounds of the invention were tested in an assay substantially similar to the assay described above for measuring the inhibition of S. aureus GyrB ATPase. Percent inhibition of S. aureus GyrB ATPase at a compound concentration of 1 μM (unless otherwise noted) is disclosed in the following table: […]

Sequence of S. aureus GyrB ATPase (P0AES4 whole entry): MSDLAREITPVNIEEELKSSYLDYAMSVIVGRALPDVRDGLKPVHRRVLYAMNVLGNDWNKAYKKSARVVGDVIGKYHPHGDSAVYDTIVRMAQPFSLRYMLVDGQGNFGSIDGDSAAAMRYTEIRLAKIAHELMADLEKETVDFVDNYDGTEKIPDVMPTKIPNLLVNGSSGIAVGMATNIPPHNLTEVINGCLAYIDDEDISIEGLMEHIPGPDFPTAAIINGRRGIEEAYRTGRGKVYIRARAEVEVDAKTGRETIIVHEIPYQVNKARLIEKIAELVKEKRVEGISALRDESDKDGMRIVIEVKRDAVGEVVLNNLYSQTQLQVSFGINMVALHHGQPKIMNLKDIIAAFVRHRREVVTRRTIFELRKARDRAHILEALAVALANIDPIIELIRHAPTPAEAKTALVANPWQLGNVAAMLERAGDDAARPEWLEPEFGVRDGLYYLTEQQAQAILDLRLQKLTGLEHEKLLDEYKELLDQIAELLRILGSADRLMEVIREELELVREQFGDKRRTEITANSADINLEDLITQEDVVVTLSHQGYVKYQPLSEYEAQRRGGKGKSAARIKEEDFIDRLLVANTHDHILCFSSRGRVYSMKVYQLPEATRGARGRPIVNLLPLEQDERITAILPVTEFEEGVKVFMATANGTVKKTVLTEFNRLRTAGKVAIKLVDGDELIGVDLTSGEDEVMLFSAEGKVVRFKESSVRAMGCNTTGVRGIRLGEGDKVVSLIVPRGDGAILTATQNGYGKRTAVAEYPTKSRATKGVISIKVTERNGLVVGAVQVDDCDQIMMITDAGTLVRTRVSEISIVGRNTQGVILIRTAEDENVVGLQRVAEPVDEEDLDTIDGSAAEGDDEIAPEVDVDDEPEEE
Sequence of S. aureus GyrB ATPase (P0A0K8 whole entry): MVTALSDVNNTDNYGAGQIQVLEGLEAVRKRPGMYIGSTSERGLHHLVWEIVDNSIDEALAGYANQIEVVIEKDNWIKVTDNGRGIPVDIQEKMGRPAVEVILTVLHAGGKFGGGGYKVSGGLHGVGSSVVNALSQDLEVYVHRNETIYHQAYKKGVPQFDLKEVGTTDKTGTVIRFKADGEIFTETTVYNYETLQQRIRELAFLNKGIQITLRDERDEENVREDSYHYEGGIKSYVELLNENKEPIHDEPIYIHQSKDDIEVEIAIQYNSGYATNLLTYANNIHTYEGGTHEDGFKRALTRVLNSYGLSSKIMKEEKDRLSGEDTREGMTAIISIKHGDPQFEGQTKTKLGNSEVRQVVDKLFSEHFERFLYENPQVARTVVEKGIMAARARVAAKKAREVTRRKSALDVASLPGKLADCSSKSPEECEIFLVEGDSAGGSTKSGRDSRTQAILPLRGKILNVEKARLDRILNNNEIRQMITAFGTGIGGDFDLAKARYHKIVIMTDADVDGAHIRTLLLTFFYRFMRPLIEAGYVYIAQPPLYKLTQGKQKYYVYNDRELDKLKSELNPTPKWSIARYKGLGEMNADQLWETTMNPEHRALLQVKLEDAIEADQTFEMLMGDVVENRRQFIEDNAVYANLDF

`C=CCO[C@H]1CN(c2nc(-c3ncnn3C)c(C(=O)O)s2)CC[C@H]1NC(=O)c1[nH]c(C)c(Cl)c1Cl` [Example 1, 2-[(3S,4R)-4-{[(3,4-dichloro-5-methyl-1H-pyrrol-2-yl)carbonyl]amino}-3-(prop-2-en-1-yloxy)piperidin-1-yl]-4-(1-methyl-1H-1,2,4-triazol-5-yl)-1,3-thiazole-5-carboxylic acid] was tested. Which inhibition at 1 µM did it give?
The inhibition at 1 µM was 99%.

`C=CCO[C@H]1CN(c2nc(-c3nccn3CCOC)c(C(=O)O)s2)CC[C@H]1NC(=O)c1[nH]c(C)c(Cl)c1Cl` [Example 2] was tested. Which inhibition at 1 µM did it give?
The inhibition at 1 µM was 103%.

Which inhibition at 1 µM does the source give for `C=CCO[C@H]1CN(c2nc(-c3cnccn3)c(C(=O)O)s2)CC[C@H]1NC(=O)c1[nH]c(C)c(Cl)c1Cl` [Example 4] here?
The inhibition at 1 µM was 97%.

For `C=CCO[C@H]1CN(c2nc(-c3ncnn3C)c(C(=O)O)s2)CC[C@H]1NC(=O)c1[nH]c(C)c(Cl)c1C#N` [Example 5], which inhibition at 1 µM is on record?
The inhibition at 1 µM was 5%.

How did the inhibition at 1 µM turn out when `C=CCO[C@H]1CN(c2nc(-c3ncccc3F)c(C(=O)O)s2)CC[C@H]1NC(=O)c1[nH]c(C)c(Cl)c1C#N` [Example 6] was run?
The inhibition at 1 µM was 99%.

Which inhibition at 1 µM does the source give for `CCO[C@H]1CN(c2nc(-c3ncnn3C)c(C(=O)O)s2)CC[C@H]1NC(=O)c1[nH]c(C)c(Cl)c1Cl` [Example 8] here?
Its inhibition at 1 µM is 100%.

For `CCO[C@H]1CN(c2nc(-c3nccn3CCOC)c(C(=O)O)s2)CC[C@H]1NC(=O)c1[nH]c(C)c(Cl)c1Cl` [Example 9], which inhibition at 1 µM is on record?
Its inhibition at 1 µM is 98%.

`CCO[C@H]1CN(c2nc(-c3ncccc3F)c(C(=O)O)s2)CC[C@H]1NC(=O)c1[nH]c(C)c(Cl)c1Cl` [Example 10] was tested. Which inhibition at 1 µM did it give?
The inhibition at 1 µM was 90%.

How did the inhibition at 1 µM turn out when `CCO[C@H]1CN(c2nc(-c3cnccn3)c(C(=O)O)s2)CC[C@H]1NC(=O)c1[nH]c(C)c(Cl)c1Cl` [Example 11] was run?
The inhibition at 1 µM was 101%.

Which inhibition at 1 µM does the source give for `CCO[C@H]1CN(c2nc(-c3ncnn3C)c(C(=O)O)s2)CC[C@H]1NC(=O)c1[nH]c(C)c(Cl)c1C#N` [Example 12] here?
Its inhibition at 1 µM is 106%.

Which inhibition at 1 µM does the source give for `CCO[C@H]1CN(c2nc(-c3ncnn3CCOC)c(C(=O)O)s2)CC[C@H]1NC(=O)c1[nH]c(C)c(Cl)c1C#N` [Example 13] here?
The inhibition at 1 µM was 99%.

Which inhibition at 1 µM does the source give for `CCO[C@H]1CN(c2nc(-c3ncccc3F)c(C(=O)O)s2)CC[C@H]1NC(=O)c1[nH]c(C)c(Cl)c1C#N` [Example 14] here?
The inhibition at 1 µM was 91%.

With `CCO[C@H]1CN(c2nc(-c3cnccn3)c(C(=O)O)s2)CC[C@H]1NC(=O)c1[nH]c(C)c(Cl)c1C#N` [Example 15] as the molecule, how does the inhibition at 1 µM read?
The inhibition at 1 µM was 98%.

Which inhibition at 1 µM does the source give for `CCO[C@H]1CN(c2nc(-c3ncnn3C)c(C(=O)O)s2)CC[C@H]1NC(=O)c1cc(Cl)c(C)[nH]1` [Example 16] here?
Its inhibition at 1 µM is 103%.

With `CCO[C@H]1CN(c2nc(-c3ncccc3F)c(C(=O)O)s2)CC[C@H]1NC(=O)c1cc(Cl)c(C)[nH]1` [Example 17] as the molecule, how does the inhibition at 1 µM read?
Its inhibition at 1 µM is 106%.

With `CCO[C@H]1CN(c2nc(-c3cnccn3)c(C(=O)O)s2)CC[C@H]1NC(=O)c1cc(Cl)c(C)[nH]1` [Example 18] as the molecule, how does the inhibition at 1 µM read?
Its inhibition at 1 µM is 108%.

For `Cc1[nH]c(C(=O)N[C@@H]2CCN(c3nc(-c4ncnn4C)c(C(=O)O)s3)C[C@@H]2C)cc1Cl` [Example 19], which inhibition at 1 µM is on record?
The inhibition at 1 µM was 112%.

For `Cc1[nH]c(C(=O)N[C@@H]2CCN(c3nc(-c4ncccc4F)c(C(=O)O)s3)C[C@@H]2C)cc1Cl` [Example 20], which inhibition at 1 µM is on record?
Its inhibition at 1 µM is 118%.

`Cc1[nH]c(C(=O)N[C@@H]2CCN(c3nc(-c4cnccn4)c(C(=O)O)s3)C[C@@H]2C)cc1Cl` [Example 21] was tested. Which inhibition at 1 µM did it give?
The inhibition at 1 µM was 118%.

With `Cc1[nH]c(C(=O)N[C@@H]2CCN(c3nc(-c4ncnn4C)c(C(=O)O)s3)C[C@@H]2C)c(Cl)c1Cl` [Example 22] as the molecule, how does the inhibition at 1 µM read?
The inhibition at 1 µM was 112%.

Which inhibition at 1 µM does the source give for `Cc1[nH]c(C(=O)N[C@@H]2CCN(c3nc(-c4ncccc4F)c(C(=O)O)s3)C[C@@H]2C)c(Cl)c1Cl` [Example 24] here?
The inhibition at 1 µM was 120%.

With `Cc1[nH]c(C(=O)N[C@@H]2CCN(c3nc(-c4cnccn4)c(C(=O)O)s3)C[C@@H]2C)c(Cl)c1Cl` [Example 25] as the molecule, how does the inhibition at 1 µM read?
The inhibition at 1 µM was 119%.

Which inhibition at 1 µM does the source give for `Cc1[nH]c(C(=O)N[C@@H]2CCN(c3nc(-c4ncnn4C)c(C(=O)O)s3)C[C@@H]2C)c(C#N)c1Cl` [Example 26] here?
The inhibition at 1 µM was 97%.

Which inhibition at 1 µM does the source give for `COCCn1ccnc1-c1nc(N2CC[C@@H](NC(=O)c3[nH]c(C)c(Cl)c3C#N)[C@@H](C)C2)sc1C(=O)O` [Example 27] here?
Its inhibition at 1 µM is 102%.

For `Cc1[nH]c(C(=O)N[C@@H]2CCN(c3nc(-c4ncccc4F)c(C(=O)O)s3)C[C@@H]2C)c(C#N)c1Cl` [Example 28], which inhibition at 1 µM is on record?
The inhibition at 1 µM was 98%.

For `Cc1[nH]c(C(=O)N[C@@H]2CCN(c3nc(-c4cnccn4)c(C(=O)O)s3)C[C@@H]2C)c(C#N)c1Cl` [Example 29], which inhibition at 1 µM is on record?
Its inhibition at 1 µM is 98%.

For `CO[C@@H]1CN(c2nc(-c3cnc(N4CCN(C)CC4)cn3)c(C(=O)O)s2)CC[C@@H]1NC(=O)c1[nH]c(C)c(Cl)c1Cl` [Example 61, 2-[(3R,4S)-4-{[(3,4-dichloro-5-methyl-1H-pyrrol-2-yl)carbonyl]amino}-3-methoxypiperidin-1-yl]-4-[5-(4-methylpiperazin-1-yl)pyrazin-2-yl]-1,3-thiazole-5-carboxylic acid], which inhibition at 1 µM is on record?
The inhibition at 1 µM was 105%.

Which inhibition at 1 µM does the source give for `CO[C@H]1CN(c2nc(-c3cnc(OCCN4CCCC4)cn3)c(C(=O)O)s2)CC[C@H]1NC(=O)c1[nH]c(C)c(Cl)c1Cl` [Example 62, 2-[(3S,4R)-4-{[(3,4-dichloro-5-methyl-1H-pyrrol-2-yl)carbonyl]amino}-3-methoxypiperidin-1-yl]-4-{5-[2-(pyrrolidin-1-yl)ethoxy]pyrazin-2-yl}-1,3-thiazole-5-carboxylic acid] here?
Its inhibition at 1 µM is 98%.

Which inhibition at 1 µM does the source give for `CO[C@H]1CN(c2nc(-c3cnc(OCCN(C)C)cn3)c(C(=O)O)s2)CC[C@H]1NC(=O)c1[nH]c(C)c(Cl)c1Cl` [Example 63] here?
The inhibition at 1 µM was 104%.

`CO[C@H]1CN(c2nc(-c3cnc(OCCN4CCN(C)CC4)cn3)c(C(=O)O)s2)CC[C@H]1NC(=O)c1[nH]c(C)c(Cl)c1Cl` [Example 64] was tested. Which inhibition at 1 µM did it give?
The inhibition at 1 µM was 104%.

`CO[C@H]1CN(c2nc(-c3cnc(OCCC4CCN(C)CC4)cn3)c(C(=O)O)s2)CC[C@H]1NC(=O)c1[nH]c(C)c(Cl)c1Cl` [Example 65] was tested. Which inhibition at 1 µM did it give?
The inhibition at 1 µM was 107%.

Which inhibition at 1 µM does the source give for `CCO[C@H]1CN(c2nc(-c3cnc(N4CCCCC4)cn3)c(C(=O)O)s2)CC[C@H]1NC(=O)c1[nH]c(C)c(Cl)c1Cl` [Example 86, 2-[(3S,4R)-4-{[(3,4-dichloro-5-methyl-1H-pyrrol-2-yl)carbonyl]amino}-3-ethoxypiperidin-1-yl]-4-[5-(piperidin-1-yl)pyrazin-2-yl]-1,3-thiazole-5-carboxylic acid] here?
Its inhibition at 1 µM is 105%.

`CCO[C@H]1CN(c2nc(-c3cnc(N4CCOCC4)cn3)c(C(=O)O)s2)CC[C@H]1NC(=O)c1[nH]c(C)c(Cl)c1Cl` [Example 87] was tested. Which inhibition at 1 µM did it give?
Its inhibition at 1 µM is 109%.

`CCO[C@H]1CN(c2nc(-c3cnc(N4CCN(C)CC4)cn3)c(C(=O)O)s2)CC[C@H]1NC(=O)c1[nH]c(C)c(Cl)c1Cl` [Example 88] was tested. Which inhibition at 1 µM did it give?
Its inhibition at 1 µM is 107%.

With `CCO[C@H]1CN(c2nc(-c3cnc(N4CCNCC4)cn3)c(C(=O)O)s2)CC[C@H]1NC(=O)c1[nH]c(C)c(Cl)c1Cl` [Example 89] as the molecule, how does the inhibition at 1 µM read?
Its inhibition at 1 µM is 110%.

For `CCO[C@H]1CN(c2nc(-c3cnc(NCCOC)cn3)c(C(=O)O)s2)CC[C@H]1NC(=O)c1[nH]c(C)c(Cl)c1Cl` [Example 90], which inhibition at 1 µM is on record?
The inhibition at 1 µM was 103%.

Which inhibition at 1 µM does the source give for `CCO[C@H]1CN(c2nc(-c3cnc(NCCN4CCOCC4)cn3)c(C(=O)O)s2)CC[C@H]1NC(=O)c1[nH]c(C)c(Cl)c1Cl` [Example 91] here?
Its inhibition at 1 µM is 105%.

With `CCO[C@H]1CN(c2nc(-c3cnc(NC(COC)COC)cn3)c(C(=O)O)s2)CC[C@H]1NC(=O)c1[nH]c(C)c(Cl)c1Cl` [Example 92] as the molecule, how does the inhibition at 1 µM read?
Its inhibition at 1 µM is 102%.

Which inhibition at 1 µM does the source give for `CCO[C@H]1CN(c2nc(-c3cnc(NCCN4CCNC4=O)cn3)c(C(=O)O)s2)CC[C@H]1NC(=O)c1[nH]c(C)c(Cl)c1Cl` [Example 93] here?
Its inhibition at 1 µM is 94%.

Which inhibition at 1 µM does the source give for `CCO[C@H]1CN(c2nc(-c3cnc(NCCN(C)C)cn3)c(C(=O)O)s2)CC[C@H]1NC(=O)c1[nH]c(C)c(Cl)c1Cl` [Example 94] here?
Its inhibition at 1 µM is 104%.

Which inhibition at 1 µM does the source give for `CCO[C@H]1CN(c2nc(-c3cnc(NCCN4CCN(C)CC4)cn3)c(C(=O)O)s2)CC[C@H]1NC(=O)c1[nH]c(C)c(Cl)c1Cl` [Example 95] here?
Its inhibition at 1 µM is 114%.
